Source: article PMC8138761 (The Journal of Biological Chemistry, 2021)

What was measured:
Assay type in all cases: biochemical
Details in all cases: read-out: % inhibition at 10 μM
[1] = target: T1, serine/threonine protein kinase-3 (MST2) (Homo sapiens, UniProt Q13188); test: in vitro FRET kinase profiling at […], duplicate
T1 sequence (Q13188 1-491): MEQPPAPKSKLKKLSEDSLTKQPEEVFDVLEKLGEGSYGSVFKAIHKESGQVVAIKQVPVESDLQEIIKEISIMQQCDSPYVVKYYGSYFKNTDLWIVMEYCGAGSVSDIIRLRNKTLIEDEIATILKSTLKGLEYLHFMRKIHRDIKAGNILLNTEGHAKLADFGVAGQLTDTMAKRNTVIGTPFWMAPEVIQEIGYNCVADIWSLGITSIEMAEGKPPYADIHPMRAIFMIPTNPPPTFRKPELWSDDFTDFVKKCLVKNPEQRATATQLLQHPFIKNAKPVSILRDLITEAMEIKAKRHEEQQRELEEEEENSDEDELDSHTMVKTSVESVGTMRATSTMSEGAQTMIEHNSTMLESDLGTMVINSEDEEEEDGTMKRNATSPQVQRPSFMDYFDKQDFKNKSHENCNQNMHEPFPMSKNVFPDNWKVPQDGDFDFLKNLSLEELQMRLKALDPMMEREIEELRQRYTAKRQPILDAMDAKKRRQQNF

[2] = target: serine/threonine protein kinase-24 (MST3) (Homo sapiens, UniProt Q9Y6E0); test: in vitro FRET kinase profiling at […], duplicate
Chain of serine/threonine protein kinase-24 (MST3) (Q9Y6E0 whole entry): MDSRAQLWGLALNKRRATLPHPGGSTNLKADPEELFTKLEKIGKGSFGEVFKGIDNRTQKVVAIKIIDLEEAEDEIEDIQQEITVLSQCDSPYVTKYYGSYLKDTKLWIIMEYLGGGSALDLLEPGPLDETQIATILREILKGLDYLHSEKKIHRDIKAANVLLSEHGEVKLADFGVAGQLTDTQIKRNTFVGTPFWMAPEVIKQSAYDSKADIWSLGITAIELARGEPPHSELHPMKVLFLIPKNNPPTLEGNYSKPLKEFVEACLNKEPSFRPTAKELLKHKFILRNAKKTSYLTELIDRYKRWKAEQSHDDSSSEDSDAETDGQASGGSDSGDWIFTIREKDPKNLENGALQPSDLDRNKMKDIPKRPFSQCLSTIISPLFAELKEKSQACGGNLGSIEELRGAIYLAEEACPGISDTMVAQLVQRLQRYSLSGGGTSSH

[3] = target: leucine-rich repeat kinase-2 (LRRK2) (Homo sapiens, UniProt Q5S007); test: in vitro FRET kinase profiling at […], duplicate
Chain of leucine-rich repeat kinase-2 (LRRK2) (Q5S007 whole entry): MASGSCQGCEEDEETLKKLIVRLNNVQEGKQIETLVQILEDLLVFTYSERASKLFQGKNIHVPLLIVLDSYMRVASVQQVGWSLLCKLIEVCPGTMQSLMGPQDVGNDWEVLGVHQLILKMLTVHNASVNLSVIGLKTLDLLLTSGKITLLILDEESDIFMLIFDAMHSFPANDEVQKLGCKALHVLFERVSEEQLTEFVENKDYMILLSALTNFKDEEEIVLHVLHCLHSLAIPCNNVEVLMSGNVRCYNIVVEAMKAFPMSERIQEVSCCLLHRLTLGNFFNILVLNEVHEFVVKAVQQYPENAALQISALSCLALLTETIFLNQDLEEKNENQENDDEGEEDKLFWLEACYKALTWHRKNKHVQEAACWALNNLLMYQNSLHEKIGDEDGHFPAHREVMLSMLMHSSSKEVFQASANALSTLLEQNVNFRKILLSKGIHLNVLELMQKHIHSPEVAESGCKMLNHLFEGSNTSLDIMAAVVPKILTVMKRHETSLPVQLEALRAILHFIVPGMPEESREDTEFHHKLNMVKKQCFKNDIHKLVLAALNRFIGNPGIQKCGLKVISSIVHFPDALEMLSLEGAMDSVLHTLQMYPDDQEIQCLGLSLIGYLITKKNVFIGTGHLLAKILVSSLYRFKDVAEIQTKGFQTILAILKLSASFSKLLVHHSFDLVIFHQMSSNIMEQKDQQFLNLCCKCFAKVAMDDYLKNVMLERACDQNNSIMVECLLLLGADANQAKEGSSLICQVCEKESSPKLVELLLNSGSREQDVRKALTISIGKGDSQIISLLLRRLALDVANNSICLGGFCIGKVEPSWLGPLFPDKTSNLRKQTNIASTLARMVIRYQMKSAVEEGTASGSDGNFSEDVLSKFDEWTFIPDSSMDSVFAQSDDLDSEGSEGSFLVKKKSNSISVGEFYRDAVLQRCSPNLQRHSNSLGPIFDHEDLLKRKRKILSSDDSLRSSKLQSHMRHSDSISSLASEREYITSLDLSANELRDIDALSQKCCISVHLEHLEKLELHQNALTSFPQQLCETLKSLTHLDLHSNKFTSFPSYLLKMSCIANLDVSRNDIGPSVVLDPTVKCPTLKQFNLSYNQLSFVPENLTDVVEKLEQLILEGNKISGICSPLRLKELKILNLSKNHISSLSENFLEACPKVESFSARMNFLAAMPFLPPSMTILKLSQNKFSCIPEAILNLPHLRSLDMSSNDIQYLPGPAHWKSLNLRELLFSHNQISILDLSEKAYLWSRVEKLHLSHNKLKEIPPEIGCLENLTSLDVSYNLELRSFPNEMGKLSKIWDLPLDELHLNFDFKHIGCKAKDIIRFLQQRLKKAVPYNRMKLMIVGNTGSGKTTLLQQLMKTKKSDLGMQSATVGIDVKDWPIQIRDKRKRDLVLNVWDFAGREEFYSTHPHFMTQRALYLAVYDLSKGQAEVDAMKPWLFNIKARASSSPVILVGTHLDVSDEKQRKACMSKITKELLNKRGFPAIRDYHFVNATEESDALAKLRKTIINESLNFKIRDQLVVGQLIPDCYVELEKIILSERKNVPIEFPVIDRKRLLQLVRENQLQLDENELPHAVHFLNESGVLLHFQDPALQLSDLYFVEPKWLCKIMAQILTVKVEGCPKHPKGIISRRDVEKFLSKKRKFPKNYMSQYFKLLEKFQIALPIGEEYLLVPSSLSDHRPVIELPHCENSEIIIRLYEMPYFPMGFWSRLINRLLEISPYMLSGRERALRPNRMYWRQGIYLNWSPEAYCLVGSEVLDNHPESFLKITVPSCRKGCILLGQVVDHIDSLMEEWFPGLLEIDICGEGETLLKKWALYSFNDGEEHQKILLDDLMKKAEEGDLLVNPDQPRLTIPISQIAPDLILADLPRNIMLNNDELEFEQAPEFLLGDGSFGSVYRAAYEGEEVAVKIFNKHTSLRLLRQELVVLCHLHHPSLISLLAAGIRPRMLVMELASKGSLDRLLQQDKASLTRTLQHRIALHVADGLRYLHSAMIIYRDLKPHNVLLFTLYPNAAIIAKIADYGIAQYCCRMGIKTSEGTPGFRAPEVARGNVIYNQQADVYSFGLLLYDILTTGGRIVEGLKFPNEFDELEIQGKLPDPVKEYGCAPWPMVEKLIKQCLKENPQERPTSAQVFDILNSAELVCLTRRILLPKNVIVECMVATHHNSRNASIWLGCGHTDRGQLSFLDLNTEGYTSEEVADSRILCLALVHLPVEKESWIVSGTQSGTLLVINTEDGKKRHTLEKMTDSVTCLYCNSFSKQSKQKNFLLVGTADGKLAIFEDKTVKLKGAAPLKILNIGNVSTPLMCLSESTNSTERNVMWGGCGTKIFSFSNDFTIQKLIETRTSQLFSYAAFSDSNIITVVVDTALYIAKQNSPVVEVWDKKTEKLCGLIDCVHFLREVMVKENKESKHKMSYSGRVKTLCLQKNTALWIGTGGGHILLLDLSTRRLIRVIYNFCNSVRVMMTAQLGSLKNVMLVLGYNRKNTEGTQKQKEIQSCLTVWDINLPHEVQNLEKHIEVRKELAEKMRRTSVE

[4] = target: T2, serine/threonine protein kinase-4 (MST1) (Homo sapiens, UniProt Q13043); test: in vitro FRET kinase profiling at […], duplicate
T2 sequence (Q13043 1-487): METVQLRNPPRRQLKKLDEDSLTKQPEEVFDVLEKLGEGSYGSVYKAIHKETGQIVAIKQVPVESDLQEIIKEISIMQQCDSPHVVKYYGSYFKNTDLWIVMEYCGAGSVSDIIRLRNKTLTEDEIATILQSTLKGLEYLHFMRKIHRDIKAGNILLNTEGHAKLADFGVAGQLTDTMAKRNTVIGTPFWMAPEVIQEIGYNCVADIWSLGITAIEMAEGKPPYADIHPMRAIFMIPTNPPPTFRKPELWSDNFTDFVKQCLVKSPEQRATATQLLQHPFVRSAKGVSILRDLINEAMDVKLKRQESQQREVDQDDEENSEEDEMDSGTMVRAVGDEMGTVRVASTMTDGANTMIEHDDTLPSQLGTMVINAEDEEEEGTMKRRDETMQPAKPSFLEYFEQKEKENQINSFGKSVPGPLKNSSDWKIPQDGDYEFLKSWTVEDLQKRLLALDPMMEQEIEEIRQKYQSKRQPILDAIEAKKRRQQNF

[5] = target: glycogen synthase kinase 3-beta (GSK3-β) (Homo sapiens, UniProt P49841); test: in vitro FRET kinase profiling
[6] = target: checkpoint kinase-2 (CHK2) (Homo sapiens, UniProt O96017); test: in vitro FRET kinase profiling at […], duplicate
Chain of checkpoint kinase-2 (CHK2) (O96017 whole entry): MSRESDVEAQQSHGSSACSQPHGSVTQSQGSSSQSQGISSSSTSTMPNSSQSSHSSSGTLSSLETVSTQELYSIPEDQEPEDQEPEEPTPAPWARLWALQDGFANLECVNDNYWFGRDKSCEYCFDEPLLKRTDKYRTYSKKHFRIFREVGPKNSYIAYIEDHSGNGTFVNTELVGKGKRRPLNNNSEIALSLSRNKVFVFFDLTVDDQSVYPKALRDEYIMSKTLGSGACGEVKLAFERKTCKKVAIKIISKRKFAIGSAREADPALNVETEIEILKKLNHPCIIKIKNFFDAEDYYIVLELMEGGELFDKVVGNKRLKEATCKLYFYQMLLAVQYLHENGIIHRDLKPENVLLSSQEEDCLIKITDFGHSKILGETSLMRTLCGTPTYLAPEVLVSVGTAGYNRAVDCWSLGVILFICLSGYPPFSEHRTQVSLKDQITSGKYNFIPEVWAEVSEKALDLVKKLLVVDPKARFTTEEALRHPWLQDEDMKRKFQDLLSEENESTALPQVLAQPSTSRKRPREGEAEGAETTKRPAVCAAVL

[7] = target: cyclin-dependent kinase (CDK) 1 (Homo sapiens, UniProt P06493); test: in vitro FRET kinase profiling at […], duplicate
Chain of cyclin-dependent kinase (CDK) 1 (P06493 whole entry): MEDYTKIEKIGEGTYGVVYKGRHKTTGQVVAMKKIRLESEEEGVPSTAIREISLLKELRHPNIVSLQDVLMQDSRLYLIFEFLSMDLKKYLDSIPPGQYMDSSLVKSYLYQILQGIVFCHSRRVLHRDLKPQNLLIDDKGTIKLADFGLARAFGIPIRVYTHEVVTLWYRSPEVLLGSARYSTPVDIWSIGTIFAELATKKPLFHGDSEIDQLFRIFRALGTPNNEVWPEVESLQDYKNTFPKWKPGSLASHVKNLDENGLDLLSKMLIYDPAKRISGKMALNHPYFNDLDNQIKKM
Chain of cyclin-dependent kinase (CDK) 1 (P14635 whole entry, further chain): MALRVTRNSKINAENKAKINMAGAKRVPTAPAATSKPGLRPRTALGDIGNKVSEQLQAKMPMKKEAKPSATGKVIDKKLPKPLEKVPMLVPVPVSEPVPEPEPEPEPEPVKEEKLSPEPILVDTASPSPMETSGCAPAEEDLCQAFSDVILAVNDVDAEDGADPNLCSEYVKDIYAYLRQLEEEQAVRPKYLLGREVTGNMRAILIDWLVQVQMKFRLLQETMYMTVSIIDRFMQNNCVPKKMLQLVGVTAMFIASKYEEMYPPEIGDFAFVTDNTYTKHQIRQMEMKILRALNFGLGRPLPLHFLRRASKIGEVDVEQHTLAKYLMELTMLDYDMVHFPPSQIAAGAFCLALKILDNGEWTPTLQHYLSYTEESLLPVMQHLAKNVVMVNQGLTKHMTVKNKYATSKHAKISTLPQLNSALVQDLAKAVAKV

[8] = target: T3, serine/threonine kinase D2 (Homo sapiens, UniProt Q9BZL6); test: in vitro FRET kinase profiling at […], duplicate
T3 sequence (Q9BZL6 1-878): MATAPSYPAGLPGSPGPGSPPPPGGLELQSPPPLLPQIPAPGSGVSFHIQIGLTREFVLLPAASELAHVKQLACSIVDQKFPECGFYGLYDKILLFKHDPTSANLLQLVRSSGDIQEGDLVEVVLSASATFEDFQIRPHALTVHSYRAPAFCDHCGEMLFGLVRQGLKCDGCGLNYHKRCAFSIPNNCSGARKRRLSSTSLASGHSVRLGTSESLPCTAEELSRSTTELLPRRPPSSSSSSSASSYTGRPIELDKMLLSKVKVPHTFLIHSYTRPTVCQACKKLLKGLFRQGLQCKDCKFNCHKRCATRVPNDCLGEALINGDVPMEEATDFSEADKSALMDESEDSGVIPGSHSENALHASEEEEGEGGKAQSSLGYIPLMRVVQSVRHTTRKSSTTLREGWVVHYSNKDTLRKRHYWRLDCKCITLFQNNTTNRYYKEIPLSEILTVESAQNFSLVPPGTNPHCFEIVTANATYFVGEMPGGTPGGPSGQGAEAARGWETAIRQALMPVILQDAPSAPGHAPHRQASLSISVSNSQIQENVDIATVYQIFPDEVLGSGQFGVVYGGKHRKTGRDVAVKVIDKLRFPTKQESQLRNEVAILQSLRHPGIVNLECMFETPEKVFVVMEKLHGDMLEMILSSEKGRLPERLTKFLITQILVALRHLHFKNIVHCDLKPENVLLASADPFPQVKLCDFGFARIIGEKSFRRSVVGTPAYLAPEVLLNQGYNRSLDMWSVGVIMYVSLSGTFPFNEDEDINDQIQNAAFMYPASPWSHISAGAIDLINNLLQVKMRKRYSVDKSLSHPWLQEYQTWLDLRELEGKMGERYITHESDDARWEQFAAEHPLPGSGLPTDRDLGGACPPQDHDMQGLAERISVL

[9] = target: T4, checkpoint kinase-1 (CHK1) (Homo sapiens, UniProt O14757); test: in vitro FRET kinase profiling at […], duplicate
T4 sequence (O14757 1-476): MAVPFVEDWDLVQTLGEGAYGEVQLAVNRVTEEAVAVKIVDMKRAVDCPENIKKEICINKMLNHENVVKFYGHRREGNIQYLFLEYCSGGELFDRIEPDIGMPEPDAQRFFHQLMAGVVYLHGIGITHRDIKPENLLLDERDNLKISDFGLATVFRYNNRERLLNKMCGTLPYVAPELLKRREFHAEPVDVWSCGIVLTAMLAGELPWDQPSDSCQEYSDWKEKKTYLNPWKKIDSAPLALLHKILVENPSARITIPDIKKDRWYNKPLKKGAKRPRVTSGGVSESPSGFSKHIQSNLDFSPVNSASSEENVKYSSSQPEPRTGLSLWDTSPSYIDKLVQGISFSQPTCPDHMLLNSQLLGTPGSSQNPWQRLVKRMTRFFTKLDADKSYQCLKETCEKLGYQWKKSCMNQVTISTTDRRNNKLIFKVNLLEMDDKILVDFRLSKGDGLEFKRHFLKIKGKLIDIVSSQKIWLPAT

[10] = target: cyclin-dependent kinase 5 (CDK5) (Homo sapiens, UniProt Q00535); test: in vitro FRET kinase profiling at […], duplicate
Chain of cyclin-dependent kinase 5 (CDK5) (Q00535 whole entry): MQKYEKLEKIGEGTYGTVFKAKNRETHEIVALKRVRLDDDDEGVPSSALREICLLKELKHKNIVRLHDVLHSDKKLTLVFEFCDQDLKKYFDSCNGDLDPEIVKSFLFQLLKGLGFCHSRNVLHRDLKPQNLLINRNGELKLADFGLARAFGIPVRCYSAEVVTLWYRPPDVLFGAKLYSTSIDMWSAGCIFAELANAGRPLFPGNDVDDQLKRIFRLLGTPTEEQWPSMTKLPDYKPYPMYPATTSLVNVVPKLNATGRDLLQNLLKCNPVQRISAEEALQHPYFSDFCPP
Chain of cyclin-dependent kinase 5 (CDK5) (Q15078 2-307 partner): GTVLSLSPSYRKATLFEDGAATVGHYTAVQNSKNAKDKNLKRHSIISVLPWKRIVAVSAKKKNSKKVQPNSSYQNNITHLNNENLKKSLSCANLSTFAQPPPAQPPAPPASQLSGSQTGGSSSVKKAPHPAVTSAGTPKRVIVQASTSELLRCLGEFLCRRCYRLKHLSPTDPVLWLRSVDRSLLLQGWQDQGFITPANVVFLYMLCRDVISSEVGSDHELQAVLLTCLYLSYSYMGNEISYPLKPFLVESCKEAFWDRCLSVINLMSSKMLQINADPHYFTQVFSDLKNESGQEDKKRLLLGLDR

- inhibition at 10 µM [1]: > 70%
- inhibition at 10 µM [2]: > 70%
- inhibition at 10 µM [3]: > 70%
- inhibition at 10 µM [4]: > 70%
- inhibition at 10 µM [5]: 100%
- inhibition at 10 µM [6]: > 70%
- inhibition at 10 µM [7]: > 70%
- inhibition at 10 µM [8]: > 70%
- inhibition at 10 µM [9]: > 70%
- inhibition at 10 µM [10]: > 70%
Structure (SMILES): Cc1cc(C)c2[nH]c(=O)c(-c3[nH]cnc3-c3ccccc3)cc2c1 [DIPQUO]
